The values below come from patent publication US20110097274A1, “Carbon-11 and fluorine-18 labeled radioligands for positron emission tomography (PET) imaging for the brain serotonin transporters” (priority 2002, published 2011).

A short description of data set [1]: In vitro logP measurement, octanol/phosphate buffer pH 7.4. The note with it: octanol/phosphate buffer pH 7.4, radiolabeled compound, mean ± SD, n = 8. Type of data set: physicochemical. The protocol: In vitro logP measurement: Octanol/water partition coefficient of the radiolabeled compounds were measured at Columbia University, using the method of Wilson et al. (2001), with some modifications. Briefly, 300 to 500 μCi of radioligand in EtOH was added to a separatory funnel containing octanol (20 mL) and phosphate buffer (20 mL, pH 7.4). The mixture was shaken mechanically for 3 minutes and the layers were separated. The octanol layer (15 mL) was transferred to a second separatory funnel containing 15 mL of the phosphate buffer (pH 7.4). The mixture was shaken mechanically for 3 minutes and the layers were separated. This second octanol layer was then partitioned into four test tubes (2 mL each) and the phosphate buffer (2 mL each) added. The test tubes were vortexed for 10 minutes, and then centrifuged for 10 minutes at 1000 rpm to separate the layers. The octanol and aqueous phases (1.0 mL each) were transferred into counting tubes and counted with a gamma counter (Wallac 1480 Wizard 3M Automatic Gamma Counter, Perkin-Elmer, Boston, Mass.). The radioactivity counts were decay-corrected and the partition coefficient calculated as P=counts in octanol/counts in buffer. Eight separate measurements were preformed for each tracer.

Data set [2] in a line: Biodistribution of labeled radioligands in male Sprague-Dawley rats. Type of data set: in vivo. The note with it: mean ± SD, n = 3. The text has this: Appropriately labeled compounds were studied in animals to assess their binding characteristics in the brain. Procedures for these biodistribution studies are as follows. […] The brain regions (cerebellum, hippocampus, striatum, frontal cortex, thalamus and hypothalamus), along with samples of blood and part of the tail, were removed, weighed, and counted in a Packard Cobra II gamma counter. The percent injected dose (% ID) of the decay- and tail-corrected activity in the brain regions and blood were calculated based upon C-11 standards prepared from the injection solution, and the % ID/g were calculated using the tissue weights.

Data set [3] can be described thus: Experiment 5: plasma clearance of ^11C and ^18F labeled AFM, AFA, AFE in one baboon. The note with it: one adult male baboon, n = 1 to 4 scans. The data set is classed as in vivo. As to the method:
(§1) General scanning methods were as described in Huang et al. (2002). Arterial input function was measured and corrected for metabolites.

The next data set concerns SERT. Briefly: Experiment 5: PET brain imaging of ^11C and ^18F labeled AFM, AFA, AFE in one baboon. The data set is classed as in vivo. Particulars: one adult male baboon, n = 1 to 4 scans, two-compartment model. As to the method:
as §1
Activity distributed in the brain in accordance to the known density distribution pattern of SERT (Laruelle et al., 1988). […] Data were analyzed with a two-compartment model, using the metabolite-corrected arterial time-activity curve as input function. This analysis provided the regional distribution volumes (VT, mL/g).
The nonspecific distribution volume, measured as the distribution volume of the cerebellum (a region with negligible SERT density) was in a similar range for all tracers (10 to 30 mL/g, Table 16).
The specific to nonspecific partition coefficient, V3″, was calculated as the ratio of VT in the region of interest (ROI) to cerebellum VT minus one. V3″ provides a measure related to receptor parameters as follows: […]

In general, logP refers to a log measure of how a compound divides between an organic and an aqueous phase. For the molecule `CSc1ccc(C2CN3CCCC3c3ccccc32)cc1` (single isomer, unassigned; (+)) [McN 5652, (+)-6β-(4-methylthiophenyl)-1,2,3,5,6α,10β-hexahydropyrrolo[2,1-a]isoquinoline], in data set [1], the logP came out at 2.51 ± 0.03.
Consider `CN(C)Cc1ccccc1Sc1ccc([18F])cc1N` [[^18F]AFA, [^18F]2-[2-(Dimethylaminomethyl)phenylthio]-5-fluorophenylamine], for which, in data set [2] (10 min post-injection), the “% ID/g Blood” value is recorded as 0.27 ± 0.01 % ID/g, the “% ID/g Cerebellum” value turned out to be 0.38 ± 0.09 % ID/g, the “% ID/g Frontal Ctx.” value was 0.81 ± 0.26 % ID/g and the “% ID/g Hippocamp.” value was determined as 0.54 ± 0.17 % ID/g. Moreover, in data set [2] (10 min post-injection), the “% ID/g Hypothal.” value was 0.73 ± 0.26 % ID/g, the “% ID/g Striatum” value amounted to 0.65 ± 0.18 % ID/g and the “% ID/g Thalamus” value turned out to be 0.72 ± 0.24 % ID/g. Besides, in data set [2] (30 min post-injection), the “% ID/g Blood” value stood at 0.16 ± 0.01 % ID/g, the “% ID/g Cerebellum” value was determined as 0.20 ± 0.01 % ID/g, the “% ID/g Frontal Ctx.” value came out at 0.65 ± 0.08 % ID/g and the “% ID/g Hippocamp.” value worked out at 0.48 ± 0.02 % ID/g. Moreover, in data set [2] (30 min post-injection), the “% ID/g Hypothal.” value worked out at 0.66 ± 0.05 % ID/g, the “% ID/g Striatum” value is given as 0.58 ± 0.05 % ID/g and the “% ID/g Thalamus” value turned out to be 0.69 ± 0.03 % ID/g. In data set [2] (60 min post-injection), the “% ID/g Blood” value was found to be 0.09 ± 0.00 % ID/g, the “% ID/g Cerebellum” value worked out at 0.07 ± 0.01 % ID/g, the “% ID/g Frontal Ctx.” value came to 0.28 ± 0.05 % ID/g and the “% ID/g Hippocamp.” value is reported as 0.23 ± 0.04 % ID/g. Further, in data set [2] (60 min post-injection), the “% ID/g Hypothal.” value was 0.38 ± 0.03 % ID/g, the “% ID/g Striatum” value worked out at 0.26 ± 0.02 % ID/g and the “% ID/g Thalamus” value was determined as 0.34 ± 0.05 % ID/g. In data set [2] (90 min post-injection), the “% ID/g Blood” value is listed as 0.08 ± 0.01 % ID/g, the “% ID/g Cerebellum” value was found to be 0.05 ± 0.01 % ID/g, the “% ID/g Frontal Ctx.” value came to 0.20 ± 0.02 % ID/g and the “% ID/g Hippocamp.” value is given as 0.18 ± 0.01 % ID/g. For the same molecule, in data set [2] (90 min post-injection), the “% ID/g Hypothal.” value came to 0.30 ± 0.06 % ID/g, the “% ID/g Striatum” value was determined as 0.19 ± 0.01 % ID/g and the “% ID/g Thalamus” value is reported as 0.23 ± 0.05 % ID/g. Also, in data set [2] (120 min post-injection), the “% ID/g Blood” value turned out to be 0.07 ± 0.01 % ID/g, the “% ID/g Cerebellum” value worked out at 0.04 ± 0.00 % ID/g, the “% ID/g Frontal Ctx.” value was found to be 0.11 ± 0.02 % ID/g and the “% ID/g Hippocamp.” value is on record as 0.10 ± 0.01 % ID/g. Moreover, in data set [2] (120 min post-injection), the “% ID/g Hypothal.” value is given as 0.17 ± 0.01 % ID/g, the “% ID/g Striatum” value was 0.11 ± 0.02 % ID/g and the “% ID/g Thalamus” value turned out to be 0.16 ± 0.02 % ID/g. The molecule further showed a Clearance in data set [3] of 68 L/h. For the same molecule, the “Cerebellum V (nonspecific distribution volume)” value in the data set on SERT was found to be 24 mL/g.
